The source of these data is patent US7902170B2, “Influenza virus binding, sialylated oligosaccharide substance and use thereof” (priority 2000, dated 2011).

“Also recorded” adds a separate entry of the source.

The test system of the assay is avian virus A/duck/Czechoslovakia/56, H4N6. The assay is classed as binding, avian influenza A virus (H4N6).
As to “NeuAcα3Galβ3GalNAcβ4(NeuAcα3)Galβ4GlcβCer [GD1a]”, the “Binding of avian influenza virus HRP conjugate to glycolipid on TLC plate” value (shortened to “Binding”) was “binding”. The result for “NeuAcα3Galβ3GalNAcβ4(NeuAcα8NeuAcα3)Galβ4GlcβCer [GT1b]” reads “binding”. As to “NeuAcα3Galβ4GlcNAcβ3Galβ4GlcβCer [S-3-PG]”, the “Binding” value was “binding; also recorded: bound”. In the case of NeuAcα3Galβ4GlcβCer [GM3], the “Binding” value was “not observed”. Take sulfatide: the “Binding” value is given as “probably unspecific interaction”.
